Assay results reported in patent US20220323455A1, “FUSED HETEROCYCLIC DERIVATIVES AS ANTIVIRAL AGENTS” (priority 2019, published 2022).
Read-outs that look alike come from different tables or passages of the source.

Experiments:
HBV = assay: Anti-HBV activity in HepG2.117 cell line (intracellular HBV DNA, real-time PCR); type: cell-based; details: Hepatitis B virus, read-out: HBV-AVE-HepG2.117 EC50 (μM, mean value)
Procedure: The anti HBV activity was measured using the HepG2.117 cell line, a stable, inducibly HBV producing cell line, which replicates HBV in the absence of doxicycline (Tet-off system). The HepG2 cell line is available from ATCC® under number HB-8065. Transfection of the HepG2 cell line can be as described in Sun and Nassal 2006 Journal of Hepatology 45 (2006) 636-645 “Stable HepG2- and Huh7-based human hepatoma cell lines for efficient regulated expression of infectious hepatitis B virus”.
For the antiviral assay, HBV replication was induced, followed by a treatment with serially diluted compound in 96-well plates. After 3 days of treatment, the antiviral activity was determined by quantification of intracellular HBV DNA using real-time PCR and an HBV specific primer set and probe.

[1] = Cytotoxicity in HepG2.117 cells (ATPlite Luminescence Assay); type: cell-based; details: human, incubated for 3 days, cell viability, mean value, read-out: TOX-HepG2.117 CC50 (μM, mean value)
Procedure: Cytotoxicity of the compounds was tested using HepG2 or HepG2.117 cells, incubated for 3 days in the presence of compounds. The viability of the cells was assessed using the PERKIN ELMER ATPlite Luminescence Assay System.”

[2] = 72 h, HepG2.117 cells, 3 days of treatment, intracellular HBV DNA, mean value

| SMILES | EC50 (HBV; [2]) [µM] | CC50 at 3 days [1] [µM] | EC50 (HBV; HepG2.117, 72 h) [µM] |
| --- | --- | --- | --- |
| C#C[C@@]1(O)CCC(F)(F)c2c3c(nn2C1)C[C@@H](C)N(C(=O)c1ccc(Cl)c(Cl)c1)C3 (single isomer, unassigned) [Example C11, (3,4-Dichlorophenyl)[(3R,8*S)-8-ethynyl-11,11-difluoro-8-hydroxy-3-methyl-1,3,4,7,8,9,10,11-octahydro-2H-pyrido[4′,3′:3,4]pyrazolo[1,5-a]azepin-2-yl]methanone] | 0.257 | 33.8 |  |
| C[C@@H]1Cc2nn3c(c2CN1C(=O)c1ccc(Cl)c(Cl)c1)C(F)(F)CC[C@@H](O)C3 (single isomer, unassigned) [Example C8, (3,4-Dichlorophenyl)[(3R,8*R)-11,11-difluoro-8-hydroxy-3-methyl-1,3,4,7,8,9,10,11-octahydro-2H-pyrido[4′,3′:3,4]pyrazolo[1,5-a]azepin-2-yl]methanone] | 0.019 | > 50 |  |
| O=C(c1ccc(Cl)c(Cl)c1)N1CCc2nn3c(c2C1)C(F)(F)CCC(CNC(=O)C(F)(F)F)C3 (stereo not drawn) [Example C17, N-{[2-(3,4-Dichlorobenzoyl)-11,11-difluoro-1,3,4,7,8,9,10,11-octahydro-2H-pyrido[4′,3′:3,4]-pyrazolo[1,5-a]azepin-8-yl]methyl}-2,2,2-trifluoroacetamide] |  | 20 | 0.326 |
| C[C@@H]1Cc2nn3c(c2CN1C(=O)c1ccc(Cl)c(Cl)c1)C(F)(F)C(O)CCC3 (stereo partly drawn) [Example C6, (3,4-Dichlorophenyl)[(3R)-11,11-difluoro-10-hydroxy-3-methyl-1,3,4,7,8,9,10,11-octahydro-2H-pyrido[4′,3′:3,4]pyrazolo[1,5-a]azepin-2-yl]methanone] | 3.28 | > 50 |  |
| C[C@@H]1Cc2nn3c(c2CN1C(=O)c1ccc(Cl)c(Cl)c1)C(F)(F)CN(S(C)(=O)=O)CC3 [Example C4, (3,4-Dichlorophenyl)[(3R)-11,11-difluoro-9-(methanesulfonyl)-3-methyl-1,3,4,7,8,9,10,11-octahydro-2H-pyrido[4′,3′:3,4]pyrazolo[1,5-d][1,4]diazepin-2-yl]methanone] | 0.052 | > 50 |  |
| C#C[C@]1(O)CCC(F)(F)c2c3c(nn2C1)C[C@@H](C)N(C(=O)c1ccc(Cl)c(Cl)c1)C3 (single isomer, unassigned) [Example C10, (3,4-Dichlorophenyl)[(3R,8*R)-8-ethynyl-11,11-difluoro-8-hydroxy-3-methyl-1,3,4,7,8,9,10,11-octahydro-2H-pyrido[4′,3′:3,4]pyrazolo[1,5-a]azepin-2-yl]methanone] | 0.078 | 36.9 |  |
| COC(=O)NCC1CCC(F)(F)c2c3c(nn2C1)CCN(C(=O)c1ccc(Cl)c(Cl)c1)C3 (stereo not drawn) [Example C16, Methyl {[2-(3,4-dichlorobenzoyl)-11,11-difluoro-1,3,4,7,8,9,10,11-octahydro-2H-pyrido-[4′,3′:3,4]pyrazolo[1,5-a]azepin-8-yl]methyl}carbamate] | 0.177 | 38.2 |  |
| C[C@@H]1Cc2nn3c(c2CN1C(=O)c1ccc(Cl)c(Cl)c1)C(F)(F)CNCC3 [Example C2, (3,4-Dichlorophenyl)[(3R)-11,11-difluoro-3-methyl-1,3,4,7,8,9,10,11-octahydro-2H-pyrido[4′,3′:3,4]pyrazolo[1,5-d][1,4]diazepin-2-yl]methanone] | 0.088 | > 50 |  |
| C[C@@H]1Cc2nn3c(c2CN1C(=O)c1ccc(Cl)c(Cl)c1)C(F)(F)CC[C@@H](C(C)(C)O)C3 (single isomer, unassigned) [Example C14, (3,4-Dichlorophenyl)[(3R,8*R)-11,11-difluoro-8-(2-hydroxypropan-2-yl)-3-methyl-1,3,4,7,8,9,10,11-octahydro-2H-pyrido[4′,3′:3,4]pyrazolo[1,5-a]azepin-2-yl]methanone] | < 0.195 | 5.76 |  |
| CC(=O)NCC1CCC(F)(F)c2c3c(nn2C1)CCN(C(=O)c1ccc(Cl)c(Cl)c1)C3 (stereo not drawn) [Example C15, N-{[2-(3,4-dichlorobenzoyl)-11,11-difluoro-1,3,4,7,8,9,10,11-octahydro-2H-pyrido[4′,3′:3,4]-pyrazolo[1,5-a]azepin-8-yl]methyl}acetamide] | 0.221 | > 50 |  |
| C[C@@H]1Cc2nn3c(c2CN1C(=O)c1ccc(Cl)c(Cl)c1)C(F)(F)CN(C)CC3 [Example C3, (3,4-Dichlorophenyl)[(3R)-11,11-difluoro-3,9-dimethyl-1,3,4,7,8,9,10,11-octahydro-2H-pyrido[4′,3′:3,4]pyrazolo[1,5-d][1,4]diazepin-2-yl]methanone] | 0.032 | > 50 |  |
| COc1ccc(CN2CCn3nc4c(c3C(F)(F)C2)CN(C(=O)c2ccc(Cl)c(Cl)c2)[C@H](C)C4)cc1 [Example C1, (3,4-Dichlorophenyl){(3R)-11,11-difluoro-9-[(4-methoxyphenyl)methyl]-3-methyl-1,3,4,7,8,9,10,11-octahydro-2H-pyrido[4′,3′:3,4]pyrazolo[1,5-d][1,4]diazepin-2-yl}methanone] | 0.274 | 15.7 |  |
| C[C@@H]1Cc2nn3c(c2CN1C(=O)c1ccc(Cl)c(Cl)c1)C(F)(F)CC[C@@H](CO)C3 (single isomer, unassigned) [Example C12, (3,4-Dichlorophenyl)[(3R,8*R)-11,11-difluoro-8-(hydroxymethyl)-3-methyl-1,3,4,7,8,9,10,11-octahydro-2H-pyrido[4′,3′:3,4]pyrazolo[1,5-a]azepin-2-yl]methanone] | 0.048 | 32.7 |  |
| C[C@@H]1Cc2nn3c(c2CN1C(=O)c1ccc(Cl)c(Cl)c1)C(F)(F)C(Oc1ccc(C#N)cc1)CCC3 (stereo partly drawn) [Example C7, 4-{[(3R)-2-(3,4-Dichlorobenzoyl)-11,11-difluoro-3-methyl-1,3,4,7,8,9,10,11-octahydro-2H-pyrido[4′,3′:3,4]pyrazolo[1,5-a]azepin-10-yl]oxy}benzonitrile] |  | > 50 | 2.38 |
| C[C@@H]1Cc2nn3c(c2CN1C(=O)c1ccc(Cl)c(Cl)c1)C(F)(F)CC[C@H](O)C3 (single isomer, unassigned) [Example C9, (3,4-Dichlorophenyl)[(3R,8*S)-11,11-difluoro-8-hydroxy-3-methyl-1,3,4,7,8,9,10,11-octahydro-2H-pyrido[4′,3′:3,4]pyrazolo[1,5-a]azepin-2-yl]methanone] | 0.018 | > 50 |  |
